In US8445636B2, “Antimicrobial and anticancer lipopeptides” (Yeda Research & Development Co. Ltd., priority 2003, dated 2013):
In brackets after ≈: the same amount, converted by molar mass. Where two headings read alike, the source gives them in different places. Non-standard residues stand in square brackets, D forms with d. Residues, ends and D or L forms follow the SMILES beside them. *: point of attachment. Palmitoyl = CCCCCCCCCCCCCCCC(=O)*

Assays:
Type in all cases: cell-based
[1] = test system: Aspergillus flavus ATCC 9643
[2] = test system: B. subtilis ATCC 6051
[3] = test system: Aspergillus fumigatus ATCC 26430; test: microbe, parasite or virus in culture
[4] = test system: Cryptococcus neoformans ATCC MYA-422; test: microbe, parasite or virus in culture
[5] = test system: Candida albicans ATCC 10231; test: microbe, parasite or virus in culture; details: for MIC: read-out: Minimal Inhibitory Concentration, Candida Albicans (ATCC 10231)
Outline: (§1)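 In this assay, each strain, prepared at 1×10^4 CFU/ml before mixing, met serial twofold peptide dilutions in RPMI 1640 buffered with 0.165 M MOPS. Unless noted, pH was 7.4; a pH 5.5 condition was also run. After 24-48 h incubation (35 °C, agitated), wells were scored at 620 nm for total inhibition.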

[6] = test system: Aspergillus niger ATCC 9642
Description: The antifungal activity of the lipopeptides was examined in sterile 96-well plates (Nunc F96 microtiter plates) in a final volume of 200 μL as follows: 100 µl of a suspension containing fungi at a concentration of 1×10^4 Colony-Forming Units (CFU)/ml in culture medium (RPMI 1640, 0.165 M MOPS with L-glutamine, without NaHCO3) at pH 7.4 or pH 5.5 (adjustment of the pH was done by diluted solutions of HCl and NaOH) were added to 100 μl of water containing the peptide in serial 2-fold dilutions in water. The fungi were incubated in the presence of the lipopeptides for 24-48 h at 35° C. in a Binder KB115 incubator under agitation. Growth inhibition was determined by measuring the absorbance at 620 nm with a Microplate autoreader E1309 (Bio-Tek Instruments). Antifungal activity is expressed as the minimal inhibitory concentration (MIC), the concentration at which 100% inhibition of fungi growth was observed after the incubation time mentioned above. The fungi used were: Aspergillus niger ATCC 9642, Candida albicans ATCC 10231 and Cryptococcus neoformans ATCC 66031. If not indicated otherwise, the fungi growth was detected at pH 7.4.

[7] = test system: Pseudomonas aeruginosa ATCC 27853
Outline: (§2)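 MIC = lowest concentration with 100% growth inhibition, judged from A600 after 18-20 h incubation at 37° C. Bacteria at 1×10^6 CFU/ml in LB (pH 7.4 unless pH 5.5 stated) combined with equal volume of serially 2-fold diluted lipopeptide.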

[8] = test system: Acinetobacter baumannii ATCC 19606
Outline: as §2

[9] = test system: Escherichia coli ATCC 25922
Outline: as §2

[10] = test system: Staphylococcus aureus ATCC 6538P
Outline: as §2

[11] = test system: human red blood cells (hRBC); test: Hemolytic activity, release of hemoglobin at 540 nm
Description: Fresh human red blood cells (hRBC) with EDTA were rinsed 3 times with PBS (35 mM phosphate buffer/0.15 M NaCl, pH 7.3) by centrifugation for 10 min at 800 g and resuspended in PBS. Peptides dissolved in PBS were then added to 50 μl of a solution of the stock hRBC in PBS to reach a final volume of 100 μl (final erythrocyte concentration, 4% v/v). The resulting suspension was incubated under agitation for 60 min at 37° C. The samples were then centrifuged at 800×g for 10 min. Release of hemoglobin was monitored by measuring the absorbance of the supernatant at 540 nm. Controls for zero hemolysis (blank) and 100% hemolysis consisted of hRBC suspended in PBS and Triton 1%, respectively.

[12] = test system: Cryptococcus neoformans ATCC 66031; test: microbe, parasite or virus in culture; details: Table 10; pH 7.4
Outline: as §1

[13] = test system: Enterococcus faecalis ATCC 29212; details: Table 4; pH 7.4
Outline: as §2

[14] = test system: Enterobacter cloacae ATCC 49141; details: Table 4; pH 7.4
Outline: as §2

[15] = Table 14, lipopeptides vs parent peptides, pH 7.4
[16] = Table 8, lipopeptides vs parent peptides, pH 7.4

Row | Structure (SMILES) | Minimal Inhibitory Concentration, Aspergillus flavus (ATCC 9643) ([1]; ATCC 9643, pH 7.4) [µM] | Minimal Inhibitory Concentration, B. subtilis (ATCC 6051) ([2]; ATCC 6051, pH 7.4) [µM] | Minimal Inhibitory Concentration, Aspergillus fumigatus (ATCC 26430) ([3]; ATCC 26430, pH 7.4) [µM] | Minimal Inhibitory Concentration, Cryptococcus neoformans (ATCC MYA-422) ([4]; ATCC MYA-422, pH 7.4) [µM] | MIC ([5]; ATCC 10231, pH 7.4) [µM] | Minimal Inhibitory Concentration, Aspergillus niger (ATCC 9642) ([6]; ATCC 9642, pH 7.4) [µM] | Minimal Inhibitory Concentration, P. aeruginosa ATCC 27853 ([7]; ATCC 27853, pH 7.4) [µM] | Minimal Inhibitory Concentration, A. baumannii ATCC 19606 ([8]; ATCC 19606, pH 7.4) [µM] | Minimal Inhibitory Concentration, E. coli (ATCC 25922) ([9]; ATCC 25922, pH 7.4) [µM] | Minimal Inhibitory Concentration, S. aureus ATCC 6538P ([10]; ATCC 6538, pH 7.4) [µM] | further results
1 | CCCCCCCCCCCCCCCC(=O)N[C@@H](CCCCN)C(=O)N[C@H](C(=O)N[C@@H](C(=O)N[C@@H](C(=O)N[C@@H](CCCCN)C(=O)N[C@H](C(=O)N[C@H](C(=O)N[C@@H](C(=O)N[C@@H](CCCCN)C(=O)N[C@@H](C(=O)N[C@H](C(=O)N[C@@H](CCCCN)C(N)=O)C(C)C)C(C)C)C(C)C)C(C)C)C(C)C)C(C)C)C(C)C)C(C)C [lipopeptide 7, (CH3—(CH2)14—CO—)-Lys-Val-D-Val-D-Val-Lys-Val-Val-D-Val-Lys-D-Val-Val-Lys-NH2] (Palmitoyl-KV[dV][dV]KVV[dV]K[dV]VK-NH2) | >100 | >100 | >100 | 3.125 | 3.125 (≈ 4.88 µg/mL) | >100 | >100 | >100 | >100 | >100 | 
2 | CC(C)[C@H](NC(=O)[C@H](CCCCN)NC(=O)[C@H](NC(=O)[C@H](NC(=O)[C@@H](NC(=O)[C@@H](N)CCCCN)C(C)C)C(C)C)C(C)C)C(=O)N[C@H](C(=O)N[C@@H](C(=O)N[C@@H](CCCCN)C(=O)N[C@@H](C(=O)N[C@H](C(=O)N[C@@H](CCCCN)C(N)=O)C(C)C)C(C)C)C(C)C)C(C)C [DK4V8, reference compound] (H-KV[dV][dV]KVV[dV]K[dV]VK-NH2; N-terminus assumed) | >100 | 60 | >100 | 50 | >100 | >100 | >100 | >100 | >100 | >100 | 
3 | CCCCCCCCCCCCCCCC(=O)NCC(=O)N[C@H](C(=O)NCC(=O)N[C@@H](CCCCN)C(=O)N[C@@H](Cc1ccccc1)C(=O)N[C@H](CC(C)C)C(=O)N[C@@H](Cc1c[nH]cn1)C(=O)N[C@@H](CO)C(=O)N[C@@H](C)C(=O)N[C@H](CCCCN)C(=O)N[C@@H](CCCCN)C(=O)N[C@@H](Cc1c[nH]c2ccccc12)C(=O)NCC(=O)N[C@@H](CCCCN)C(=O)N[C@@H](C)C(=O)N[C@H](Cc1ccccc1)C(=O)N[C@H](C(=O)NCC(=O)N[C@H](CCC(=O)O)C(=O)N[C@H](C(=O)N[C@@H](CCSC)C(=O)N[C@@H](CC(N)=O)C(=O)N[C@@H](CO)C(N)=O)[C@@H](C)CC)C(C)C)[C@@H](C)CC [[D]4magainin-PA] (Palmitoyl-GIGKF[dL]HSA[dK]KWGKA[dF]VG[dE]IMNS-NH2) |  |  |  |  |  |  |  |  |  |  | Minimal Inhibitory Concentration, B. subtilis (ATCC 6051) ([2]; ATCC 6051): 50 µM; Minimal Inhibitory Concentration, Aspergillus fumigatus (ATCC 26430) ([3]; ATCC 26430): >50 µM; MIC ([4]; Table 17, D-magainin analog, mean of 3 experiments, standard deviation of 25%, read-out: Minimal Inhibitory Concentration, Cyrptococcus neoformans (ATCC MYA-422)): 6.25 µM (≈ 17.1 µg/mL); % of Hemolytic activity at maximal MIC ([11]; human): 8%; MIC ([5]; ATCC 10231): >50 µM; Minimal Inhibitory Concentration, P. aeruginosa ATCC 27853 ([7]; ATCC 27853): >50 µM; Minimal Inhibitory Concentration, E. coli (ATCC 25922) ([9]; ATCC 25922): >50 µM; Minimal Inhibitory Concentration, S. aureus ATCC 6538P ([10]; ATCC 6538): >50 µM
4 | CCCCCCCCCCCCCCCC(=O)N[C@@H](CCCCN)C(=O)N[C@@H](C)C(=O)N[C@@H](C)C(=O)N[C@@H](C)C(=O)N[C@@H](CCCCN)C(=O)N[C@@H](C)C(=O)N[C@@H](C)C(=O)N[C@@H](C)C(=O)N[C@@H](CCCCN)C(=O)N[C@@H](C)C(=O)N[C@@H](C)C(=O)N[C@@H](CCCCN)C(N)=O [lipopeptide 6, (CH3—(CH2)14—CO—)-Lys-Ala-Ala-Ala-Lys-Ala-Ala-Ala-Lys-Ala-Ala-Lys-NH2] (Palmitoyl-KAAAKAAAKAAK-NH2) |  |  |  |  |  |  |  |  |  |  | Minimal Inhibitory Concentration, A. fumigatus ATCC 26430 ([3]; Table 10, pH 7.4): 12.5 µM; hemolytic activity ([11]; at concentrations lower than 12 μM, human red blood cells (FIGS. 1-5)): do not exhibit significant hemolytic activity; Minimal Inhibitory Concentration, C. albicans ATCC 10231 ([5]; Table 10, pH 7.4): 3.125 µM; Minimal Inhibitory Concentration, C. neoformans ATCC 66031 [12]: 1.56 µM; Minimal Inhibitory Concentration, E. faecalis [13]: 50 µM; Minimal Inhibitory Concentration, P. Aeruginosa ([7]; Table 4, pH 7.4): 25 µM; Minimal Inhibitory Concentration, A. Baumaannii ([8]; Table 4, pH 7.4): 25 µM; Minimal Inhibitory Concentration, E. coli ([9]; Table 4, pH 7.4): 50 µM; Minimal Inhibitory Concentration, S. aureus ([10]; Table 4, pH 7.4): 50 µM; Minimal Inhibitory Concentration, E. cloacae [14]: 100 µM
5 | NCCCC[C@@H](N)C(=O)NCC(=O)NCC(=O)NCC(=O)N[C@H](CCCCN)C(=O)NCC(=O)NCC(=O)NCC(=O)N[C@H](CCCCN)C(=O)NCC(=O)NCC(=O)N[C@H](CCCCN)C(N)=O [DK4G8, reference compound] (H-[dK]GGG[dK]GGG[dK]GG[dK]-NH2; N-terminus assumed) | >100 | >100 | >100 | >100 | >100 | >100 | >100 | >100 | >100 | >100 | 
6 | C[C@H](NC(=O)[C@H](C)NC(=O)[C@H](CCCCN)NC(=O)[C@@H](C)NC(=O)[C@@H](C)NC(=O)[C@H](C)NC(=O)[C@@H](N)CCCCN)C(=O)N[C@H](C)C(=O)N[C@@H](CCCCN)C(=O)N[C@H](C)C(=O)N[C@@H](C)C(=O)N[C@@H](CCCCN)C(N)=O [DK4A8, reference compound] (H-KA[dA][dA]KAA[dA]K[dA]AK-NH2; N-terminus assumed) |  |  |  |  |  |  |  |  |  |  | Minimal Inhibitory Concentration, Aspergillus flavus (ATCC 9643) [1, 15]: >100 µM; Minimal Inhibitory Concentration, B. subtilis (ATCC 6051) [2, 16]: >100 µM; Minimal Inhibitory Concentration, Aspergillus fumigatus (ATCC 26430) [3, 15]: >100 µM; Minimal Inhibitory Concentration, Cryptococcus neoformans (ATCC MYA-422) [4, 15]: >100 µM; MIC [5, 15]: >100 µM; Minimal Inhibitory Concentration, Aspergillus niger (ATCC 9642) [6, 15]: >100 µM; Minimal Inhibitory Concentration, P. aeruginosa ATCC 27853 [7, 16]: >100 µM; Minimal Inhibitory Concentration, A. baumannii ATCC 19606 [8, 16]: >100 µM; Minimal Inhibitory Concentration, E. coli (ATCC 25922) [9, 16]: >100 µM; Minimal Inhibitory Concentration, S. aureus ATCC 6538P [10, 16]: >100 µM
